Assay [1] is described as follows: coagulation of heat-inactivated foetal calf serum. The protocol:
(§1) The oxide powder was allowed to settle to the bottom of the vessel (0.5 ml capacity Eppendorf tube) and was left undisturbed for 2 hours. […] The vessel was left undisturbed for 24 h.

Assay [2] in a line: coagulation of chronic wound fluid. On the procedure:
as §1

The test system of assay [3] is gelatine. Nature of the assay: coagulation of gelatine solution. Conditions: 5 μl aliquot of 350 mg/ml solution, 100 μl gelatine solution 40 mg/ml in PBS, immediately.
Assay [4] in a line: coagulation of whole human blood. Conditions: 1-5 μl aliquots of 350 mg/ml solution, 100 μl whole human blood. On the procedure: Examples 4-9 were repeated with 100 μl whole human blood in place of the bovine serum albumin solution.
A short description of assay [5]: coagulation of whole human saliva. Conditions: 5 gi aliquot of 350 mg/ml solution in PBS pH 7.4, 100 μl whole human saliva, 30 minutes. On the procedure:
(§2) The vessel was left undisturbed for 30 minutes.

The target in assay [6] is bovine serum albumin (Bos taurus, UniProt P02769). Nature of the assay: coagulation of bovine serum albumin solution. The conditions noted are these: 10 mg powder in 100 μl bovine serum albumin 40 mg/ml in PBS pH 7.4, undisturbed 2 hours. On the procedure: The oxide powder was allowed to settle to the bottom of the vessel (0.5 ml capacity Eppendorf tube) and was left undisturbed for 2 hours.
Sequence of bovine serum albumin (P02769 25-607): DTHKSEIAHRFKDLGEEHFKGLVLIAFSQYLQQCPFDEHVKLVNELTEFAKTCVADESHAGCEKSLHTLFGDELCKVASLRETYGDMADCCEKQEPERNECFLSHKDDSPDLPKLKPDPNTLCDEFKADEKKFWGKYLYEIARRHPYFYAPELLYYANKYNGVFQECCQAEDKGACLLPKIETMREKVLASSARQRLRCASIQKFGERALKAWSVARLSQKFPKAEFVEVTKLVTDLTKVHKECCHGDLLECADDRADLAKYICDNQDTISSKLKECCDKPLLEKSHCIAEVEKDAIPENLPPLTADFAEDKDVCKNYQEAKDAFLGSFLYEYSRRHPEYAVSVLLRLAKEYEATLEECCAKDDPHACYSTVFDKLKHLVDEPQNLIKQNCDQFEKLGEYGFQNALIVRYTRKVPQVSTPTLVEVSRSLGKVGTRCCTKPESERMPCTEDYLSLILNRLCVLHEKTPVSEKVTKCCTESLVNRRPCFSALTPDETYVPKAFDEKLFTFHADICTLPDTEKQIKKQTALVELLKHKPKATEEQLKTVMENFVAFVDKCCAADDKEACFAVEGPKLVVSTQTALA
as §2, §2, §2, §2, §2
The vessel was left undisturbed for 24 h.

On to gold (III) chloride, for which the “coagulation, Examples 4-9 repeated” value in assay [1] (1-5 μl aliquots of 350 mg/ml solution, 100 μl heat-inactivated foetal calf serum) is reported as “The results were the same”; in assay [2] (1-5 μl aliquots of 350 mg/ml solution, 100 μl chronic wound fluid), “The results were the same”; in assay [4] it was “The results were the same”. Moreover, the coagulation entry in assay [1] (5 μl aliquot of 350 mg/ml solution, heat-inactivated foetal calf serum, 1.0 ml syringe, 24 h) is “the fluid coagulated”; in assay [2] (5 μl aliquot of 350 mg/ml solution, chronic wound fluid, 1.0 ml syringe, 24 h), “the fluid coagulated”; in assay [5], “a lightly coagulated, opaque mass of several millimetres thickness was formed”. Further, the “coagulation / precipitate formation” value in assay [3] is “a fibrous precipitate was formed”.

“gold (III) oxide [gold (III) oxide powder]”: the coagulation entry was “a coagulated, opaque mass of several millimetres thickness was formed” in assay [1] (10 mg powder in 100 μl heat-inactivated foetal calf serum, undisturbed 2 hours); “the entire fluid volume had coagulated” in assay [2] (10 mg powder in 100 μl chronic wound fluid, overnight); “a coagulated, opaque mass of several millimetres thickness was formed” in assay [2] (10 mg powder in 100 μl chronic wound fluid, undisturbed 2 hours); “a coagulated, opaque mass of several millimetres thickness was formed” in assay [6].

The values are drawn from patent US20090142411A1, “Composition and Device Comprising an Inorganic Component (Metal Compound) for Coagulation of Protein-Containing Fluids” (SMITH & NEPHEW, PLC, priority 2005, published 2009).
